Experimental data from US10434083B2, “Transmammary delivery of cyclooxygenase-2 inhibitors for analgesia in neonates” (Iowa State University Research Foundation, Inc., priority 2018, dated 2019).
Like-named read-outs stand apart in the source and are kept apart here.

Key:
[1] = in vivo; conditions: female, Yorkshire×Landrace, swine
Protocol: Tissue concentrations of firocoxib and its descyclopropylmethyl metabolite were determined using high-pressure liquid chromatography (Agilent 1100 Pump, Column Compartment and Autosampler, Agilent Technologies, Santa Clara, Calif., USA) with mass spectrometry detection (LTQ Ion Trap, Thermo Scientific, San Jose, Calif., USA). The tissue samples analysed were muscle, injection site, kidney, liver, and fat. Eight calibration spikes were prepared in blank porcine tissue in the concentration range of 0.05-10 μg/g. The tissue samples were thawed and homogenized in a Waring blender before extraction and analysis. […]
Plasma and tissue firocoxib concentrations were determined using high-pressure liquid chromatography (Agilent 1100 Pump, Column Compartment and Autosampler, Agilent Technologies, Santa Clara, Calif.) with mass spectrometry detection (LTQ Ion Trap, Thermo Scientific, San Jose, Calif.). […] Full scan MS was used for analyte detection and three fragment ions were used for quantitation of each analyte species. […] Firocoxib and d6-firocoxib were analyzed in positive ion mode. […]
For plasma samples, the calibration curves had correlation coefficients (R^2) exceeding 0.995 across the concentration range. […] The limit of quantitation of the analysis was 1.0 ng/mL, with a limit of detection of 0.2 ng/mL. […]

[2] = Pharmacokinetics of firocoxib in a single sow after IM injection (Example 1); assay type: in vivo, swine; conditions: 1.5 mg/kg IM; for AUC: im, 1.5 mg/kg
From the text: The objective of this study was to characterize the pharmacokinetic profile and transmammary delivery of firocoxib in a single sow and her litter when administered via injection to provide analgesia to piglets via the milk prior to routine piglet processing procedures. One crossbred sow and her litter sourced from the MVS-Klitz Farm was used for this project. The sow was in good health, and had not received treatment with anti-inflammatory drugs by any route. The study sow was housed in a farrowing crate. Feed and water was provided ad libitum throughout the study period. No additional medications were provided. Study animals were identified using unique duplicate ear tags and/or tattoos.
There was one treatment group in this study (refer to Table 1). The sow was given firocoxib (20 mg/mL) on Study Day 0. Firocoxib was administered via injection five (+/−2) days post-farrow, at 1.5 mg/kg IM.
Blood (sodium heparin tubes) was collected from the sow via jugular venipuncture at the following time points after drug administration via injection to the sow: 0, 1, 2, 3, 4, 6, 8, 10, 12, 24, 36 and 48 hours. The piglets had blood collected via jugular venipuncture at the following timepoints following sow drug administration via injection:
Approximately 10 mL of blood was collected from the sow at each time point, and approximately 5 mL was collected from each piglet at each time point. Following blood collection at the 48 hour time point, the sow and piglets was euthanized and disposed of per study site procedures.
Samples were stored on ice after collection and before processing. Blood samples were centrifuged for 10 minutes at 1,500 g. Collected plasma was placed in duplicate cryovials with a single-use transfer pipette and frozen at −70° C. until analysis. Cryovials were labeled with the time point and collection date.
Plasma concentrations of firocoxib were measured with high-pressure liquid chromatography-tandem mass spectrometry (Shimadzu Prominence, Shimadzu Scientific Instruments, Columbia, Md., USA). Briefly, frozen samples or standards were thawed at room temperature and rigorously vortexed once completely thawed. A 200 μL plasma sample was added to 400 μL 5% Acetic Acid and the internal standard celecoxib (20 μg/mL). The entire diluted sample was added to a 3 mL solid phase extraction tubes (OASIS) which was conditioned prior with methanol (2 ml) and equilibrated with water (2 ml). The sample was then gravity filtered through the solid phase extraction tubes and subsequently washed with 1 ml 5% acetic acid, followed by 1 ml solution of 25% methanol/75% water. Using 2×0.75 mL acetonitrile, firocoxib was eluted into a glass tube and an additional internal standard piroxicam (10 ng/μL) was added. Samples were evaporated to dryness at 48° C. under a stream of nitrogen, reconstituted with […] 25% in water and pipetted into an injection vial for LC-MS/MS analysis with the injection volume set to 10 μL. The mobile phase consisted of acetonitrile and formic acid (0.1%) at a flow rate of 0.4 mL/min. The concentration of this mobile phase began at 85% formic acid (0.1%) from 0 to 0.5 minutes with a linear gradient to 50% formic acid (0.1%) at 2.5 minutes, which was maintained until 3 minutes, followed by a linear gradient to 85% formic acid (0.1%) at 4 minutes with a total run time of 5 minutes.
The standard curve of firocoxib concentration determined using porcine plasma was linear from 0.020 to 5.0 μg/mL and was accepted when the correlation coefficient exceeded 0.99 and measured values were within 15% of the actual values. The lower limit of quantification, defined as the lowest concentration on a linear standard curve with predicted concentrations within 15% of the actual concentration, was 0.020 μg/mL.
Firocoxib time concentration data was analyzed using a commercially available computer software program (Kinetica, Thermo Scientific).

[3] = female, crossbred, swine, plasma

CC1(C)OC(=O)C(OCC2CC2)=C1c1ccc(S(C)(=O)=O)cc1 [firocoxib]
concentration at 21 d [1]: ≤ 50 ng/g
% AUCextra [2]: 33.02%
AUMCextra [2]: 322.22 μg/mL * (h)^2
AUMClast [2]: 155.18 μg/mL * (h)^2
AUMtot [2]: 477.39 μg/mL * (h)^2
Clearance [2]: 32.45 L/h
Vss [2]: 1390.95 L
Vz [2]: 1285.61 L
AUC(0-t) ([2]; female, crossbred, pig, plasma): 7460 ng·h/mL
MRT ([2]; female, crossbred, pig, plasma): 42.9 h
MRT last ([2]; female, crossbred, pig, plasma): 20.8 h
half-life ([2]; female, crossbred, pig, plasma): 27.5 h
AUC ([2]; female, crossbred, pig, plasma, read-out: AUCextra): 3680 ng·h/mL
AUC ([2]; female, crossbred, pig, plasma, read-out: AUCtot): 11100 ng·h/mL
Cmax [2, 3]: 287 ng/mL
Tmax [2, 3]: 6 h
